Data reported in ChEMBL document CHEMBL3272296, “Quinazolines and 1,4-benzodiazepines. 82.1 5-Pyrimidyl-and 5-pyrazinylbenzodiazepines” (1977).

What was measured:
Format in all cases: functional
Mus musculus [1] = assay: Anticonvulsant activity in po dosed mouse assessed as protection against maximal electroshock-induced seizures
Mus musculus [2] = assay: Anticonvulsant activity in po dosed mouse assessed as protection against pentylenetetrazole-induced seizures
Mus musculus [3] = assay: CNS activity in po dosed mouse assessed as reduction in fighting behaviour
Mus musculus [4] = assay: CNS activity in po dosed mouse assessed as reduction in muscle relaxant activity by inclined screening method
Felis catus = assay: CNS activity in po dosed unanesthesized cat assessed as muscle relaxant activity; settings: read-out: MED

| SMILES | ED50 (Mus musculus [1]) | ED50 (Mus musculus [2]) | ED50 (Mus musculus [3]) | ED50 (Mus musculus [4]) | minimal effective dose (Felis catus) |
| --- | --- | --- | --- | --- | --- |
| O=C1CN=C(c2ccncn2)c2cc(Cl)ccc2N1 | > 800 mg/kg | 340 mg/kg | > 100 mg/kg | > 400 mg/kg | – |
| O=C1CN=C(c2cnccn2)c2cc(Cl)ccc2N1 | > 800 mg/kg | 7.4 mg/kg | 50 mg/kg | 300 mg/kg | 10 mg/kg |
| O=C1CN=C(c2ncccn2)c2cc(Cl)ccc2N1 | 520 mg/kg | 1.75 mg/kg | 100 mg/kg | 500 mg/kg | 2 mg/kg |
| CN1C(=O)CN=C(c2ccccc2)c2cc(Cl)ccc21 [DIAZEPAM] | 22 mg/kg | 1.4 mg/kg | 10 mg/kg | 30 mg/kg | 0.2 mg/kg |
| CN1CCN=C(c2ncccn2)c2cc(Cl)ccc21 | 360 mg/kg | > 800 mg/kg | 100 mg/kg | 200 mg/kg | 10 mg/kg |
| O=C1CN=C(c2ccccn2)c2cc(Br)ccc2N1 [BROMAZEPAM] | 34 mg/kg | 0.8 mg/kg | 10 mg/kg | 30 mg/kg | 0.2 mg/kg |
| Cc1cnc(C)c(C2=NCC(=O)Nc3ccc(Br)cc32)n1 | > 800 mg/kg | 37 mg/kg | 50 mg/kg | > 400 mg/kg | 10 mg/kg |
| O=[N+]([O-])c1ccc2c(c1)C(c1ncccn1)=NCCN2 | > 800 mg/kg | 68 mg/kg | – | > 400 mg/kg | – |
| CN1CCN=C(c2ncccn2)c2cc([N+](=O)[O-])ccc21 | > 800 mg/kg | 93 mg/kg | > 100 mg/kg | 250 mg/kg | 20 mg/kg |
| CN1C(=O)CN=C(c2ncccn2)c2cc(Cl)ccc21 | 315 mg/kg | 0.75 mg/kg | – | > 200 mg/kg | 0.1 mg/kg |
